Reference: patent publication US11351173B2, “Substituted pyrrolo[1,2-a]pyrimidines and their use in the treatment of medical disorders” (Bial—R&D Investments, S.A., priority 2014, dated 2022)
Converted amounts (≈) assume the structure as drawn.

What was measured:
[1] = Compound solubility in water; conditions: water; for solubility: Compound Solubility in Water
[2] = target: T1, glucocerebrosidase (Gcase) (Homo sapiens, UniProt P04062); assay: Glucocerebrosidase (Gcase) activation assay, 4-methylumbelliferyl-beta-D-glucopyranoside substrate, fluorescence readout; format: biochemical; conditions: for activation at 0.1 µM / Percent Gcase Activation, 0.1 μM Test Compound: test compound at 0.1 μM; for activation at 0.1 µM: read-out: Percent Gcase Activation, 0.1 μM Test Compound; for activation at 1 µM / Percent Gcase Activation, 1 μM Test Compound: test compound at 1.0 μM; for activation at 1 µM: read-out: Percent Gcase Activation, 1 μM Test Compound
T1 construct: micellar solution containing 10 nM GCase and 100 nM saposin C
T1 sequence (P04062 40-536): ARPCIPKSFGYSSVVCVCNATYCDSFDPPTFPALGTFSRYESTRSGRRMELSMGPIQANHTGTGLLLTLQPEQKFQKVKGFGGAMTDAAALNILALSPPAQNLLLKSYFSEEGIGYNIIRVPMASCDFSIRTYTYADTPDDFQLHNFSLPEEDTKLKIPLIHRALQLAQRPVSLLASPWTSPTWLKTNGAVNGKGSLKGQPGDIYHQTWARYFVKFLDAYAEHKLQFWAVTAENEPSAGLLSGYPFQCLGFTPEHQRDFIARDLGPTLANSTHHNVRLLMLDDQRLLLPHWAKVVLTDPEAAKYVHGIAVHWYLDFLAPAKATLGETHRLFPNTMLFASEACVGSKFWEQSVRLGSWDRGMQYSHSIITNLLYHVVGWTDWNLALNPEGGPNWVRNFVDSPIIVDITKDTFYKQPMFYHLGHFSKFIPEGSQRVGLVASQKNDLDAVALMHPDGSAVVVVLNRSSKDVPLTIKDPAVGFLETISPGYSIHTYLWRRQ
Description: The ability of exemplary compounds to activate glucocerebrosidase (Gcase) was measured.
A 484 μL aliquot of a 1.0 mg/mL solution of phosphatidylserine (PS) (Sigma P7769) in chloroform was evaporated under a stream of nitrogen for 1 hour. The lipid film was dissolved over 4 minutes of vigorous vortexing in 40 mL of 176 mM K2HPO4/50 mM citric acid (pH 4.7) containing 7.5 μL of triton X-100, resulting in a mixed micellar preparation with a composition of 0.32 mM triton and 0.37 mol % PS. 4-Methylumbelliferyl-beta-D-glucopyranoside (ACROS-337025000) was dissolved in the micellar solution to a final concentration of 2 mM for use as the reaction substrate.
Test compounds were diluted to the desired concentrations with dimethylsulfoxide (DMSO) from 10 mM stocks, and 0.41 μL of the DMSO compound mixture was added to 100 μL of micellar solution containing 10 nM GCase and 100 nM saposin C (Enzo ALX-201-262-C050). Pre-incubation was allowed to occur for 30 minutes at room temperature, after which the reaction was initiated by combining 25 μL of substrate solution with 25 μL of compound/GCase/saposin mixture. The reaction proceeded for 15 minutes at room temperature and was stopped by adding 150 μL of 1M glycine, pH 12.5. The endpoint of the reaction was monitored by measuring fluorescence intensity (excitation: 365 nm; emission: 440 nm) on a SpectraMax i3 instrument (Molecular Devices). Test compounds were screened at 1.0 and 0.1 μM final concentration, and subsequent 8-point dose response curves were obtained using 3-fold dilutions from a maximum final concentration of 5 μM.

| Structure (SMILES) | solubility [1] [µg/mL] | activation at 0.1 µM [2] [%] | activation at 1 µM [2] [%] | Percent Gcase Activation, 1 μM Test Compound [2] | Compound Solubility in Water [1] [µg/mL] | Percent Gcase Activation, 0.1 μM Test Compound [2] |
| --- | --- | --- | --- | --- | --- | --- |
| CCCCO[C@H]1CC[C@H](NC(=O)c2ccn3c(C(F)F)cc(COC)nc23)CC1 [III-35] | 11.7 (≈ 28.6 µM) | > 20 | > 60 |  |  |  |
| CCCCO[C@H]1CC[C@H](NC(=O)c2ccn3c(COC)cc(C(C)C)nc23)CC1 [III-36] | 3.5 (≈ 8.72 µM) | > 20 | > 60 |  |  |  |
| CCCCO[C@H]1CC[C@H](NC(=O)c2ccn3c(C(C)C)cc(COC)nc23)CC1 [III-37] | 18 (≈ 44.8 µM) | 10 to 20 | > 60 |  |  |  |
| Cc1cc(Cl)nc2c(C(=O)Nc3ccc(-c4cocn4)cc3)ccn12 [III-38] | 0.3 (≈ 0.85 µM) | > 20 | 30 to 60 |  |  |  |
| Cc1cc(Cl)n2ccc(C(=O)Nc3ccc(-c4cocn4)cc3)c2n1 [III-39] | 0.7 (≈ 1.98 µM) | 10 to 20 | 30 to 60 |  |  |  |
| Cc1cc(Br)nc2c(C(=O)Nc3ccc(-c4cocn4)cc3)ccn12 [III-40] | 0.3 (≈ 0.755 µM) | 10 to 20 | > 60 |  |  |  |
| Cc1cc(Br)n2ccc(C(=O)Nc3ccc(-c4cocn4)cc3)c2n1 [III-41] | 0.02 (≈ 0.0503 µM) | < 10 | 30 to 60 |  |  |  |
| COCc1cc(C)n2ccc(C(=O)N[C@H]3CCCc4ccccc43)c2n1 [III-42] | 0.4 (≈ 1.14 µM) | > 20 | > 60 |  |  |  |
| COCCOCc1cc(C)n2ccc(C(=O)N[C@H]3CCCc4ccccc43)c2n1 [III-43] | 25.2 (≈ 64 µM) | 10 to 20 | > 60 |  |  |  |
| CCCCO[C@H]1CC[C@H](NC(=O)c2ccn3c(C4CC4)cc(C)nc23)CC1 [III-44] | 2.3 (≈ 6.22 µM) | 10 to 20 | > 60 |  |  |  |
| CCCCO[C@H]1CC[C@H](NC(=O)c2ccn3c(C)cc(COC)nc23)CC1 [III-45] | 13.6 (≈ 36.4 µM) | 10 to 20 | > 60 |  |  |  |
| Cc1cc(C2CC2)n2ccc(C(=O)N[C@H]3CC[C@H](OCCCC(F)(F)F)CC3)c2n1 [III-46] | 1.7 (≈ 4.01 µM) | < 10 | > 60 |  |  |  |
| Cc1cc(C2CC2)n2ccc(C(=O)N[C@H]3CC[C@H](OCCCCC(F)(F)F)CC3)c2n1 [III-47] | 0.3 (≈ 0.686 µM) | < 10 | > 60 |  |  |  |
| COCc1cc(C)n2ccc(C(=O)NC(C)(C)c3ccc(-c4cocn4)cc3)c2n1 [III-48] | 3.5 (≈ 8.65 µM) | 10 to 20 | > 60 |  |  |  |
| COCc1cc(C)nc2c(C(=O)NC(C)(C)c3ccc(-c4cocn4)cc3)ccn12 [III-49] | 1.7 (≈ 4.2 µM) | > 20 | > 60 |  |  |  |
| COCc1cc(C)n2ccc(C(=O)Nc3ccc(-c4cocn4)cc3)c2n1 [III-50] | 0.3 (≈ 0.828 µM) | > 20 | > 60 |  |  |  |
| COc1cc(C)n2ccc(C(=O)Nc3ccc(-c4cocn4)cc3)c2n1 [III-52] | 0.1 (≈ 0.287 µM) | 10 to 20 | 30 to 60 |  |  |  |
| Cc1cc(O)n2ccc(C(=O)Nc3ccc(-c4cocn4)cc3)c2n1 [III-55] | 1.8 (≈ 5.38 µM) | < 10 | < 30 |  |  |  |
| Cc1cc(O)n2ccc(C(=O)NC3CCCc4ccccc43)c2n1 (centres unmarked) [III-56] | 3.7 (≈ 11.5 µM) | < 10 | < 30 |  |  |  |
| COCc1cc(C(F)F)nc2c(C(=O)NC3(C)CCOc4cc(F)c(F)cc43)ccn12 (centres unmarked) [III-57] | 1.5 (≈ 3.43 µM) | 10 to 20 | > 60 |  |  |  |
| COCc1cc(C(F)F)n2ccc(C(=O)NC3(C)CCOc4cc(F)c(F)cc43)c2n1 (centres unmarked) [III-58] | 4.1 (≈ 9.37 µM) | 10 to 20 | > 60 |  |  |  |
| [2H]C1(NC(=O)c2ccn3c(COC)cc(C(C)C)nc23)CCOc2cc(F)c(F)cc21 (centres unmarked) [III-59] | 0.07 (≈ 0.168 µM) | 10 to 20 | > 60 |  |  |  |
| [2H]C1(NC(=O)c2ccn3c(C(C)C)cc(COC)nc23)CCOc2cc(F)c(F)cc21 (centres unmarked) [III-60] | 2.4 (≈ 5.76 µM) | < 10 | 30 to 60 |  |  |  |

| Structure (SMILES) | solubility [1] [µg/mL] | activation at 0.1 µM [2] [%] | activation at 1 µM [2] [%] | Percent Gcase Activation, 1 μM Test Compound [2] | Compound Solubility in Water [1] [µg/mL] | Percent Gcase Activation, 0.1 μM Test Compound [2] |
| --- | --- | --- | --- | --- | --- | --- |
| C#Cc1ccc(C(C)(C)NC(=O)c2ccn3c(C)cc(COC)nc23)cc1 [III-61] | 2.5 (≈ 6.92 µM) | > 20 | > 60 |  |  |  |
| C#Cc1ccc(C(C)(C)NC(=O)c2ccn3c(COC)cc(C)nc23)cc1 [III-62] | 2.7 (≈ 7.47 µM) | > 20 | > 60 |  |  |  |
| C#Cc1cccc(C(C)(C)NC(=O)c2ccn3c(COC)cc(C)nc23)c1 [III-63] | 0.8 (≈ 2.21 µM) | 10 to 20 | > 60 |  |  |  |
| C#Cc1cccc(C(C)(C)NC(=O)c2ccn3c(C)cc(COC)nc23)c1 [III-64] | 0.5 (≈ 1.38 µM) | > 20 | > 60 |  |  |  |
| CCCCO[C@H]1CC[C@H](NC(=O)c2ccn3c(C)cc(Cl)nc23)CC1 [III-65] | 8.2 (≈ 22.5 µM) | > 20 | > 60 |  |  |  |
| CCCCO[C@H]1CC[C@H](NC(=O)c2ccn3c(C)cc(NC)nc23)CC1 [III-66] | 0.4 (≈ 1.12 µM) | 10 to 20 | > 60 |  |  |  |
| CCCCO[C@H]1CC[C@H](NC(=O)c2ccn3c(C)cc(C(F)F)nc23)CC1 [III-67] | 4.7 (≈ 12.4 µM) | > 20 | > 60 |  |  |  |
| CCCCO[C@H]1CC[C@H](NC(=O)c2ccn3c(C(F)F)cc(C)nc23)CC1 [III-68] | 1 (≈ 2.64 µM) | > 20 | > 60 |  |  |  |
| Cc1cc(Cl)nc2c(C(=O)NC3c4ccccc4C4CC3C4)ccn12 (centres unmarked) [III-69] | 0.06 (≈ 0.171 µM) | > 20 | > 60 |  |  |  |
| CNc1cc(C)n2ccc(C(=O)NC3c4ccccc4C4CC3C4)c2n1 (centres unmarked) [III-70] | 0.3 (≈ 0.866 µM) | > 20 | > 60 |  |  |  |
| CNc1cc(C)n2ccc(C(=O)N[C@H]3CC[C@H](OCC(C)C)CC3)c2n1 [III-71] | 1 (≈ 2.79 µM) | > 20 | > 60 |  |  |  |
| CCCCO[C@H]1CC[C@H](NC(=O)c2ccn3c(C)cc(F)nc23)CC1 [III-72] | 14.3 (≈ 41.2 µM) | < 10 | 30 to 60 |  |  |  |
| Cc1cc(Cl)nc2c(C(=O)N[C@H]3CC[C@H](OCC(C)C)CC3)ccn12 [III-73] | 2 (≈ 5.5 µM) | > 20 | > 60 |  |  |  |
| CCCO[C@H]1CC[C@H](NC(=O)c2ccn3c(C)cc(Cl)nc23)CC1 [III-74] | 10.8 (≈ 30.9 µM) | > 20 | > 60 |  |  |  |
| CO[C@H]1CC[C@H](C(C)(C)NC(=O)c2ccn3c(C)cc(Cl)nc23)CC1 [III-75] | 5.3 (≈ 14.6 µM) | 10 to 20 | > 60 |  |  |  |
| CO[C@H]1CC[C@@H](C(C)(C)NC(=O)c2ccn3c(C)cc(Cl)nc23)CC1 [III-76] | 0.04 (≈ 0.11 µM) | > 20 | > 60 |  |  |  |
| Cc1cc(C)n2ccc(C(=O)NC3CCCC4(CCCCO4)C3)c2n1 (centres unmarked) [III-80] | 8.7 (≈ 25.5 µM) | 10 to 20 |  | +++ (Gcase activation greater than 60%) |  |  |
| Cc1cc(C)n2ccc(C(=O)NC3CCCC4(CCCCO4)C3)c2n1 (centres unmarked) [III-81] |  |  |  | + (less than 30% Gcase activation) | 9.8 | * (less than 10% Gcase activation) |
| Cc1cc(C)n2ccc(C(=O)NC3CCC4(CCCCO4)C3)c2n1 (centres unmarked) [III-82] | 27.3 (≈ 83.4 µM) | 10 to 20 |  | +++ (Gcase activation greater than 60%) |  |  |
| Cc1cc(C)n2ccc(C(=O)NC3CCC4(CCCCO4)C3)c2n1 (centres unmarked) [III-85] |  |  |  |  | 21.3 | * (less than 10% Gcase activation) |
| Cc1cc(C)n2ccc(C(=O)Nc3ccc(-n4ccnc4)cc3)c2n1 [III-86] | 0.3 (≈ 0.905 µM) | < 10 | < 30 |  |  |  |
| COc1cc(NC(=O)c2ccn3c(C)cc(C)nc23)ccc1-c1cnco1 [III-87] | 0.1 (≈ 0.276 µM) | > 20 | 30 to 60 |  |  |  |
